Structures can show the parent of a compound that is named as a salt. Where two headings read alike, the source gives them in different places.
Target: T1, Human IP6K1 (Homo sapiens, UniProt Q92551)
T1 construct: GST (N, cleaved yes); made in house; host or cells: C43 E. coli, pGEX-6P-2
Experiment: IP6K1 high-throughput screen of the Sigma LOPAC (ADP-Glo Max, single point);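 also: final compound concentration 10µM in 5% DMSO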
Format: biochemical

[1] = Sigma LOPAC single-point screen, ADP-Glo Max raw signal per well
[2] = Sigma LOPAC single-point screen, Z-score from plate average and StDev
[3] = LOPAC single-point screen, ADP-Glo Max luminescence raw signal per well
[4] = LOPAC single-point screen, Z-score relative to plate average and StDev
[5] = LOPAC single-point screen, ADP-Glo Max raw signal per well
[6] = LOPAC single-point screen, Z-score against plate average and StDev
[7] = LOPAC single-point screen, Z-score from raw signal with plate average and StDev
[8] = LOPAC single-point screen, Z-score from plate average and StDev

T1 sequence (Q92551 whole entry): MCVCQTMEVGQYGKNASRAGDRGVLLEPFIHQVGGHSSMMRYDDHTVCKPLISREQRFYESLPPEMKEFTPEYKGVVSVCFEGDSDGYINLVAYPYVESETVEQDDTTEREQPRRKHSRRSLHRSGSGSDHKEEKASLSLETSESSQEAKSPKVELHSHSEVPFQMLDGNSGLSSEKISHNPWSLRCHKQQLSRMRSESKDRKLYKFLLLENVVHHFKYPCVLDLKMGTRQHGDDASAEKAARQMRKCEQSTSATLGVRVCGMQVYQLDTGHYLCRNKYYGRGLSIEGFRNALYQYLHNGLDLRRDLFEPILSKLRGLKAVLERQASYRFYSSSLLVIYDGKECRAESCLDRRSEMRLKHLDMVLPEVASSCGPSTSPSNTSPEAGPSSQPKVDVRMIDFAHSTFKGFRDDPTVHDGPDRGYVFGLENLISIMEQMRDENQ

Compound	Raw Signal [1]	Z-score [2]	Raw Signal [5]	further results
N#C/C(=C\c1ccc(O)c(O)c1)C(=O)N1CCc2ccccc21 [Tyrphostin AG 528]	58882	0.5553	–	–
CN1CCN2c3ccccc3Cc3ccccc3C2C1 (stereo not drawn) [Mianserin hydrochloride]	–	–	–	Raw Signal [3]: 51451; Z-score [4]: -0.4944
C[N+]1(C)CCN(c2ccccc2)CC1.[I-]	–	–	55993	Z-score [6]: 0.1677
CCC(NC(C)C)C(O)c1ccc(O)c(O)c1.CS(=O)(=O)O (stereo not drawn) [Isotharine mesylate]	–	–	54100	Z-score [6]: -0.04932
CN(C)CCC=C1c2ccccc2COc2ccccc21 [Doxepin hydrochloride]	58742	0.726	–	–
CN1CCN(C2=Nc3ccccc3Oc3ccc(Cl)cc32)CC1 [Loxapine succinate]	–	–	54983	Z-score [6]: 0.09905
COc1ccc2c(c1)[C@@]13CCCC[C@H]1[C@@H](C2)NCC3.Cl [3-Methoxy-morphanin hydrochloride]	–	–	54071	Z-score [6]: -0.05419
Cl.NCCNC(=O)c1ncsc1-c1cccc(F)c1 [Ro 41-1049 hydrochloride]	60989	0.9646	–	–
FC(F)(F)c1ccccc1-n1ccnc1 [1-[2-(Trifluoromethyl)phenyl]imidazole]	60208	0.8129	–	–
CC(NCCc1ccc(O)cc1)C(O)c1ccc(O)cc1 (stereo not drawn) [Ritodrine hydrochloride]	59316	0.6396	–	–
Oc1c2ccccc2c2c3c(cccc13)N=N2 [SP600125]	57057	0.3838	–	–
NC(N)=NOCC[C@H](N)C(=O)O.O=S(=O)(O)O [L-Canavanine sulfate]	61689	0.665	–	–
NC1(C(=O)O)CCc2cc(C(=O)O)ccc21 (stereo not drawn) [AIDA]	–	–	–	Raw Signal [3]: 52578; Z-score [4]: -0.9397
Cc1ccccc1CNc1ncnc2c1ncn2[C@@H]1O[C@H](CO)[C@@H](O)[C@H]1O [Metrifudil]	–	–	54359	Z-score [6]: -0.005798
CO/N=C(\C(=O)N[C@@H]1C(=O)N2C(C(=O)O)=C(CSc3nc(=O)c(=O)[nH]n3C)CS[C@H]12)c1csc(N)n1 [Ceftriaxone sodium]	–	–	55787	Z-score [7]: -0.3745
CNCCNS(=O)(=O)c1cccc2cnccc12.Cl.Cl [H-8 dihydrochloride]	–	–	53425	Z-score [7]: -0.1627
O=C(O)c1cccnc1Nc1cccc(C(F)(F)F)c1 [Niflumic acid]	–	–	–	Raw Signal [3]: 47033; Z-score [4]: -1.237
CC(C)(C)c1onc(OCP(=O)(O)O)c1CC(N)C(=O)O (stereo not drawn) [ATPO]	60120	0.3887	–	–
CC(=O)O.NC(=NCCC[C@H](N)C(=O)O)NO [NG-Hydroxy-L-arginine acetate]	–	–	53960	Z-score [7]: -0.2451
O=C1C(SCCO)=C(SCCO)C(=O)c2ccccc21 [NSC 95397]	–	–	55516	Z-score [6]: 0.07087
CC(C)NCC(O)COc1cccc2ccccc12.Cl (racemic) [(±)-Propranolol hydrochloride]	–	–	53827	Z-score [7]: -0.09519

Compound	Raw Signal [1]	Z-score [2]	Raw Signal [5]	further results
CN1C2CCC1CC(NC(=O)c1nn(C)c3ccccc13)C2.O=C(O)/C=C\C(=O)O (stereo not drawn) [LY-278,584 maleate]	–	–	–	Raw Signal [3]: 49124; Z-score [4]: -0.8854
N.N.[Cl][Pt][Cl] [Cisplatin]	–	–	–	Raw Signal [3]: 49642; Z-score [4]: -0.7984
CC(O)C(C)OC(=O)[C@@H]1C[C@@H]2c3cccc4c3c(cn4C(C)C)C[C@H]2N(C)C1.O=C(O)/C=C\C(=O)O (stereo partly drawn) [LY-53,857 maleate]	58270	0.6514	–	–
c1ccc2cc(-c3ncc[nH]3)ccc2c1 [Benazoline oxalate]	61441	0.6214	–	–
CC(C)c1cccc(C(C)C)c1O [Propofol]	–	–	–	Raw Signal: 48098; Z-score: -1.436
O=C1NC(c2cccc([N+](=O)[O-])c2)=CCN1c1ccccc1O [Icilin]	–	–	–	Raw Signal [3]: 49844; Z-score [4]: -1.081
Cc1cc(O)c2c(c1)C(=O)c1cc(O)cc(O)c1C2=O [Emodin]	61234	1.232	–	–
Cn1ccnc1 [1-Methylimidazole]	56921	0.4247	–	–
CC(N)C(O)c1ccc(O)c(O)c1 (single isomer, unassigned; (-)) [(-)-alpha-Methylnorepinephrine]	–	–	–	Raw Signal [3]: 45337; Z-score [4]: -1.996
CN1CCC(=C2c3ccccc3CC(=O)c3sccc32)CC1 [Ketotifen fumarate]	–	–	–	Raw Signal [3]: 50782; Z-score [4]: -0.6068
Cl.Cl.Fc1ccc(C(OCCN2CCN(CCCc3ccccc3)CC2)c2ccc(F)cc2)cc1 [GBR-12909 dihydrochloride]	60047	0.9911	–	–
C[C@]12CCC(=O)C=C1CC[C@@H]1[C@@H]2[C@@H](O)C[C@@]2(C)[C@H]1CC[C@]2(O)C(=O)COC(=O)CCC(=O)[O-].[Na+] [Hydrocortisone 21-hemisuccinate sodium]	57689	0.5122	–	–
O=c1[nH]cc(F)c(=O)[nH]1 [5-Fluorouracil]	–	–	–	Raw Signal [3]: 52294; Z-score [4]: -0.5835
NC12CC3CC(CC(C3)C1)C2 [Amantadine hydrochloride]	–	–	–	Raw Signal [3]: 68782; Z-score [8]: 1.914
Cc1cc(N)c2ccccc2[n+]1CCCCCCCCCC[n+]1c(C)cc(N)c2ccccc21 [Dequalinium dichloride]	–	–	55705	Z-score [6]: 0.1093
Cl.Cl.Cn1cnc(CCN)c1 [1-Methylhistamine dihydrochloride]	–	–	52776	Z-score [7]: -0.2718
CCCCCC(O)c1cccc(OCc2ccc3ccccc3n2)c1 (stereo not drawn) [REV 5901]	62376	1.234	–	–
CN1C[C@@H](NS(=O)(=O)N(C)C)C[C@@H]2c3cccc4c3c(cn4C)C[C@H]21 [Mesulergine hydrochloride]	–	–	53840	Z-score [7]: -0.093
Cl.c1ccc2c(N3CCNCC3)cccc2c1 [1-(1-Naphthyl)piperazine hydrochloride]	–	–	55645	Z-score [6]: -0.07359
CCCn1c(=O)c2c(ncn2C)n(CCC)c1=O [1,3-Dipropyl-7-methylxanthine]	58298	0.6359	–	–
CC1=C[C@@H]2c3cccc4[nH]cc(c34)C[C@H]2N(C)C1 [Agroclavine]	–	–	–	Raw Signal [3]: 53866; Z-score [4]: -0.7128

Compound	Raw Signal [1]	Z-score [2]	Raw Signal [5]	further results
c1ccc2c(c1)[I+]c1ccccc1-2 [Diphenyleneiodonium chloride]	59663	0.9131	–	–
Br.Br.N=C(N)SCCc1ccc(CCSC(=N)N)cc1 [1,4-PBIT dihydrobromide]	–	–	–	Raw Signal [3]: 52088; Z-score [4]: -0.7647
O=C([O-])c1cc2cc(Cc3cccnc3)ccc2o1.[Na+] [Furegrelate sodium]	–	–	53193	Z-score [7]: -0.4009
CC(N)=NCc1cccc(CN)c1.Cl.Cl [1400W dihydrochloride]	–	–	55005	Z-score [7]: -0.1979
Oc1ccc(-c2nc(-c3ccncc3)c(-c3ccc(F)cc3)[nH]2)cc1 [SB 202190]	–	–	58086	Z-score [6]: 0.03045
CCn1cnc2c(Nc3cccc(Cl)c3)nc(N[C@@H]3CCCC[C@@H]3N)nc21.Cl [CGP-74514A hydrochloride]	–	–	58874	Z-score [6]: 0.1692
CC(C)C[C@H](NC(=O)[C@@H](O)[C@H](N)Cc1ccccc1)C(=O)O [Bestatin hydrochloride]	–	–	54023	Z-score [7]: -0.2323
C#C[C@]1(O)CC[C@H]2[C@@H]3CCC4=Cc5nc6nc7ccccc7n6cc5C[C@]4(C)[C@H]3CC[C@@]21C [WIN 62,577]	58080	0.3995	–	–
CCCCCCCCCC[Si](C)(C)CCC(=O)NC(Cc1ccc(C)cc1)c1ccccc1 (stereo not drawn) [Sandoz 58-035]	–	–	56427	Z-score [7]: -0.2617
CC(COc1ccccc1)N(CCCl)Cc1ccccc1 (stereo not drawn) [Phenoxybenzamine hydrochloride]	61919	0.7056	–	–
N[C@@H]1CON=C1O [D-Cycloserine]	–	–	55913	Z-score [7]: -0.3523
Br.COc1ccc2c(c1)[C@]13CCCC[C@@H]1[C@H](C2)N(C)CC3.O	–	–	54296	Z-score [7]: -0.1769
Cn1c(=O)c2[nH]cnc2n(C)c1=O.Cn1c(=O)c2[nH]cnc2n(C)c1=O.NCCN [Aminophylline ethylenediamine]	–	–	57914	Z-score [6]: 0.0001585
COC(=O)Nc1nc2ccc(C(=O)c3cccs3)cc2[nH]1 [Nocodazole]	59128	0.7955	–	–
O=C1NC(=O)C(c2ccccc2)(c2ccccc2)N1 [5,5-Diphenylhydantoin]	–	–	54091	Z-score [7]: -0.2185
CCOC(=O)C1=C[C@]2(CC)CCCN3CCc4c(n1c1ccccc41)[C@@H]32 [Vinpocetine]	59958	0.7643	–	–
Cl.N=C(N)NC(=N)Nc1cccc(Cl)c1	–	–	–	Raw Signal [3]: 49824; Z-score [4]: -1.085
CN1[C@@H](CC(=O)c2ccccc2)CCC[C@H]1C[C@H](O)c1ccccc1.Cl [alpha-Lobeline hydrochloride]	–	–	53929	Z-score [6]: -0.07805
CC(C)C[C@H](N)CSSC[C@@H](N)CC(C)C.Cl.Cl [L-Leucinethiol, oxidized dihydrochloride]	–	–	55535	Z-score [6]: 0.1918
CCN1C(=O)C=CC1=O [N-Ethylmaleimide]	–	–	55064	Z-score [6]: -0.02093
NC(N)=Nc1ccc2[nH]c3c(c2c1)C[C@@]1(O)[C@H]2Cc4ccc(O)c5c4[C@@]1(CCN2CC1CC1)[C@H]3O5.O=C(O)C(F)(F)F.O=C(O)C(F)(F)F	–	–	–	Raw Signal [3]: 65830; Z-score [8]: 2.166

Source: article PMC5706701, “Development of a homogenous high-throughput assay for inositol hexakisphosphate kinase 1 activity” (PLoS ONE, 2017)
